Molecules are shown by their SMILES. Non-standard residues stand in square brackets, D forms with d. Residues, ends and D or L forms follow the SMILES beside them. dTrp(2-Me) = Cc1[nH]c2ccccc2c1C[C@@H](N)C(=O)O; d2Nal = N[C@H](Cc1ccc2ccccc2c1)C(=O)O

The test system of series [1] is rat ischemia-reperfusion cerebral infarction models. Put plainly: rat ischemia-reperfusion cerebral infarction model after transient obstruction of middle cerebral artery. It counts as in vivo. The procedure: Preventive and therapeutic effect of KP-102 in rat ischemia-reperfusion cerebral infarction models after transient obstruction of middle cerebral artery
The effect of the growth hormone secretion promoting substance was evaluated using ischemia-reperfusion cerebral infarction models, which are general pathological models of diseases involving degeneration or death of nerve cells, such as cerebral ischemia, cerebral infarction and cerebral edema. KP-102 was used as a typical example of the growth hormone secretion promoting substance.
KP-102 (synthetic product) was dissolved in physiological saline (JP) to a concentration of 24 μg/ml. Other reagents used were halothane (JP: Takeda Chem. Ind.), triphenyltetrazolium chloride (TTC, Nacalai tesque), Dulbecco PBS(−) (Nissui Pharmaceutical) and low viscosity dental impression silicone (XANTOPRENRL, imported by Hereus Dental Material, Osaka). A 1% TTC solution was prepared by dissolving TTC in an isotonic phosphate buffer solution (pH 7.4) which had been prepared by dissolving PBS(−) powder in distilled water.
Male Wistar rats (Charles River Japan, INC.), 9 weeks old and weighing about 300 g, were used as experimental animals.
Obstruction of the middle cerebral artery was performed in accordance with the method of Koizumi et al. (Jpn. J. Stroke (1986)8:1-8) and the method of Longa et al. (Stroke (1989)20:84-91). Anesthesia was performed with 2% halothane in a 30% oxygen/70% nitrous oxide mixed gas. A cannula for administration of a test material had been inserted into the right femoral vein, and the other end of the cannula delivered to the poll. After several hours or more, the animals were anesthetized again, and set in a supine position. A median incision of the neck was made, and connective tissues around the right common carotid artery, the internal carotid artery, and the external carotid artery were ablated. The distal end of the external carotid artery and the external carotid artery were ligated with a suture, and blood flow in the common carotid artery was blocked with a clip. The following procedure was performed, with measures for prevention of bleeding being taken: A small incision was made in the external carotid artery, and a plug comprising a 5 mm front end of a surgical 4-0 nylon thread coated with dental silicone was inserted toward the internal carotid artery as far as a site where a slight resistance was felt. As a result, the middle cerebral artery (hereinafter referred to as MCA) was occluded, at its point of origin, with the plug. The plug was fixed in the internal carotid artery with a clip. The incision wound was closed and anesthesia was stopped to awake the animals. Anesthesia was performed again 70 minutes after MCA occlusion, the plug was detached 75 minutes later to restore blood flow in MCA, and the end of the external carotid artery proximal to the incision site was closed for prevention of bleeding. Blood flow in the common carotid artery was restored 10 minutes later. The incision site of the skin was closed with a Michel needle, and the animals were recovered from anesthesia.
The cannula for administration of the test material was connected to a free moving device (TCS2-21, Tsumura). […]

The nature of series [2]: influence on blood pressure and heart rate. To be noted: in vivo.
In series [3] the test system is Rat hippocampal nerve cells. The experiment in a line: ionomycin-induced death of cultured rat hippocampal nerve cells (WST-8 cell survival rate). Particulars: for inhibition of cell death induced by ionomycin at a single concentration: each 0.1 μM, 3 μM ionomycin, FIGS. 6a and 6b. Background: Tetrazolium dyes change colour on reduction, which living cells bring about.
Description: The solution was used after dilution to predetermined concentrations with distilled water for injection (JP, Otsuka Pharmaceutical) containing 1 mg/mL of bovine serum albumin (SIGMA). Rat type ghrelin (Peptide Institute) was used after dilution to predetermined concentrations with water for injection containing 1 mg/mL of bovine serum albumin. Other reagents used were L-15 culture medium, D-MEM/F-12 culture medium, MEM culture medium, Neuro Basal culture medium, B-27 supplement, horse serum, newborn calf serum, L-glutamine (all of the foregoing products of GIBCO), L-cysteine, ionomycin, calf serum albumin, DNase I (all of the foregoing products of SIGMA), glucose, viable cell count determination reagent SF (all of the foregoing products of Nacalai tesque), and papain (Worthington Biochemical).
Animals used were fetal rats on the 20th fetal day gestated in Wistar/ST definitively pregnant rats (15-18 days pregnant, Japan SLC).
Rat hippocampal nerve cells were isolated in accordance with the method of Hatanaka et al. (Hatanaka, H. and Tsukui, H., Dev. Brain. Res. 30(1986)47). Brains were removed from Wistar/ST fetal rats (20 fetal days), and soaked in cold L-15 medium. The meninges were ablated under microscope, and the hippocampus was cut out. Hippocampal tissue was transferred into a test tube containing the L-15 medium, and the test tube was centrifuged for 3 minutes at 700 rpm. Then, the supernatant was removed, and phosphate buffer (pH 7.2) containing papain (0.5 mg/mL), bovine serum albumin (0.2 mg/mL), cysteine (0.2 mg/mL), glucose (5 mg/mL) and DNase I (0.01%) was added, followed by incubating the mixture for 15 minutes at 37° C. Then, horse serum was added, and the mixture was centrifuged for 3 minutes at 700 rpm. Then, the supernatant was removed, D-MEM/F-12 medium was added, and the cells were dispersed by pipetting. After centrifugation for 5 minutes at 700 rpm, the dispersed cells were redispersed in D-MEM/F-12 medium containing 5% newborn calf serum and 5% horse serum, and inoculated in a polyethyleneimine-coated 48-well culture plate (Nunc) at a rate of 4×10^5 cells/cm^2. The cells were cultured in a culture incubator (37° C., 5% CO2-95% air). On the 2nd day of culturing, the culture medium was replaced by Neuro Basal medium containing 2 mM of glutamine and B-27 supplement. Then, the medium was replaced at intervals of 4 days.
Cells on the 14th day of culturing were used in experiments. The culture medium was replaced by a B-27-free MEM medium, and the cells were incubated for 30 minutes. Then, a solvent (dimethyl sulfoxide) and a test compound were added, and the system was incubated for 30 minutes (procedure 1). Then, 3 μM of ionomycin was added, and the mixture was incubated for 30 minutes (procedure 2). The culture medium was washed, and replaced by Neuro Basal medium containing B-27 supplement, and the system was cultured for 18 hours (procedure 3). In examining the effect of post-treatment, the solvent and the test compound were not added in procedure 1, but added 30 minutes after replacement of the medium in procedure 3.

[4] abbreviates: KP-102 total 0.16 mg/kg i.v., 72 hours after reperfusion, FIG. 1.

Regarding `C[C@H](NC(=O)[C@@H](Cc1ccc2ccccc2c1)NC(=O)[C@@H](C)N)C(=O)N[C@@H](Cc1c[nH]c2ccccc12)C(=O)N[C@H](Cc1ccccc1)C(=O)N[C@@H](CCCCN)C(N)=O` [KP-102, D-alanyl-3-(2-naphthalenyl)-D-alanyl-L-alanyl-L-tryptophyl-D-phenylalanyl-L-lysineamide] (H-[dA][d2Nal]AW[dF]K-NH2), in series [1] (setting [4]), the “cerebral infarct size, cortex” value is reported as “effect of shrinking the infarct was observed” and the “cerebral infarct size, medulla” value is recorded as “effect of shrinking the infarct was observed”. In series [1] (vs control group, KP-102 total 0.16 mg/kg i.v. infusion beginning 30 minutes after MCA occlusion, 72 hours after reperfusion, FIG. 1, P<0.05 Mann-Whitney), the “percent cerebral infarction volume for the entire cerebrum” value was “significantly smaller”. For the same molecule, the percent edema entry in series [1] (vs control group, KP-102 total 0.16 mg/kg i.v., 72 hours after reperfusion, FIG. 2, no significant differences, P=0.087) is “tendency toward suppression”. Besides, the “score of neurologic symptoms” value in series [1] (vs control group, KP-102 total 0.16 mg/kg i.v., after reperfusion, normal score 33 points, FIG. 3, P<0.05) is listed as “significantly higher”. Moreover, in series [2], the “influence on blood pressure” value was “does not influence” and the “influence on heart rate” value is recorded as “does not influence”. Besides, in series [3] (applied 30 minutes after replacement of the ionomycin-treated culture medium, FIG. 4b), the “inhibition of cell death, compound applied after ionomycin treatment” value is listed as “cell death inhibiting action was also confirmed”. Further, the “inhibition of cell death induced by 3 μM of ionomycin, compound applied 30 minutes before ionomycin” value in series [3] (concentrations of 0.01 to 1 μM, dose-dependent, FIG. 4a) is on record as “inhibited cell death”.

Turning to `NCC(O)CNC(=O)[C@@H](Cc1ccc2ccccc2c1)NC(=O)CCN1C(=O)c2ccccc2CCc2ccccc21` (stereo partly drawn) [S-37555, N-[1(R)-(3-amino-2-hydroxy-propylcarbamoyl)-2-yl-ethyl]-3-(6-oxo-11,12-dihydro-6H-dibenzo[b,f]azocinn-5-yl)-propionamide], in series [3], the “inhibition of cell death induced by ionomycin at a single concentration” value (shortened to “inhibition … at a single concentration”) is “clear action of inhibiting cell death”.

Take `CC(C)(C)C(=O)N1CCC[C@H]1C(=O)N[C@H](Cc1ccc2ccccc2c1)C(=O)NCC(O)CN` (stereo partly drawn) [S-38855, N-(3-amino-2-hydroxypropyl)-2(R)-[1-(2,2-dimethylpropionyl)pyrrolidine-2(S)-carbonylamino]-3-naphthalen-2-yl-propionamide]: the “inhibition … at a single concentration” value in series [3] is on record as “clear action of inhibiting cell death”.

For the molecule `CCC(CC)C(=O)N1CCC[C@@H]1C(=O)N[C@@H](Cc1ccc2ccccc2c1)C(=O)NCC(O)CN` (stereo partly drawn) [S-39100, N-(3-amino-2-hydroxypropyl)-2(S)-[1-(2-ethylbutyryl)pyrrolidine-2(R)-carbonylamino]-3-naphthalen-2-yl-propionamide], the “inhibition … at a single concentration” value in series [3] is given as “clear action of inhibiting cell death”.

With `Cc1[nH]c2ccccc2c1C[C@@H](NC(=O)[C@@H](N)Cc1c[nH]cn1)C(=O)N[C@@H](C)C(=O)N[C@@H](Cc1c[nH]c2ccccc12)C(=O)N[C@H](Cc1ccccc1)C(=O)N[C@@H](CCCCN)C(N)=O` [hexarelin, L-histidyl-2-methyl-D-tryptophyl-L-alanyl-L-tryptophyl-D-phenylalanyl-L-lysineamide, reference compound] (H-H[dTrp(2-Me)]AW[dF]K-NH2), the “inhibition … at a single concentration” value in series [3] is reported as “clear action of inhibiting cell death”.

The values above are taken from US20030100494A1, “Nerve protective drugs” (priority 1999, published 2003).
